ChEMBL document CHEMBL1127709, “The rational development of small molecule tachykinin NK3 receptor selective antagonists - the utilisation of a dipeptide chemical library in drug design” (Bioorg Med Chem Lett, 1994)
Each block holds one molecule with its values, some of them ahead of it.

Key:
Substance-P receptor = Substance-P receptor (Homo sapiens, UniProt P25103); experiment: Binding affinity for NK1 receptor binding sites in human lymphoma IM9 cells by using [125I]-Bolton-Hunter substance P as radioligand; assay type: cell-based, IM-9
Sequence of Substance-P receptor (P25103 whole entry): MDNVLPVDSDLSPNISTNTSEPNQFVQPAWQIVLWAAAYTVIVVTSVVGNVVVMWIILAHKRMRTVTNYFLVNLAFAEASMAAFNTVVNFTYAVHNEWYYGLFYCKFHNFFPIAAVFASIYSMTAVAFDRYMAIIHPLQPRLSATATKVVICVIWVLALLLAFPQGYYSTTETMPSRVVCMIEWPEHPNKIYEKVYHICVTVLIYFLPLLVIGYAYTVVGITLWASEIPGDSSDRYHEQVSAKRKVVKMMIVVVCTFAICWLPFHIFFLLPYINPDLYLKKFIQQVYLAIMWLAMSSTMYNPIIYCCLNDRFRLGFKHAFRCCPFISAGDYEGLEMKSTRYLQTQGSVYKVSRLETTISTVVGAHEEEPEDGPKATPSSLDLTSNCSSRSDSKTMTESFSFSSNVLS

CHO = experiment: In vitro inhibition of senktide-evoked increases in intracellular calcium levels in CHO cells using the fluorescent indicator Fura2; assay type: functional, Cricetulus griseus
Neuromedin-K receptor [1] = target: T1, Neuromedin-K receptor (Homo sapiens, UniProt P29371); experiment: Displacement of [125I][MePhe]-NKB from human NK3 receptor expressed in CHO cells; assay type: cell-based
T1 sequence (P29371 whole entry): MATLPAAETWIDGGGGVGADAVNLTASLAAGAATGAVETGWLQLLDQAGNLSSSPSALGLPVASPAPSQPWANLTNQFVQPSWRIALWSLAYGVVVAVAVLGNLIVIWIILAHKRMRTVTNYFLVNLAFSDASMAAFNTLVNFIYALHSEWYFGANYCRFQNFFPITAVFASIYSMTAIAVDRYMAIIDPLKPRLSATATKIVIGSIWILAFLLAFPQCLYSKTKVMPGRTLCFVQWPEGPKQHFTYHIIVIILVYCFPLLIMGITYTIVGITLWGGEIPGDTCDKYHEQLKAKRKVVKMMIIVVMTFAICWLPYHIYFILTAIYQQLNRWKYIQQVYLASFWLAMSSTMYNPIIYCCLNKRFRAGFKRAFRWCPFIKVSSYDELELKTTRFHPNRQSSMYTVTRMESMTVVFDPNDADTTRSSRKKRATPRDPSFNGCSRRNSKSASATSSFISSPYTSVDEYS

Neuromedin-K receptor [2] = target: T2, Neuromedin-K receptor (Cavia porcellus, UniProt P30098); experiment: Binding affinity for NK3 receptor binding sites in guinea pig cortical membranes by using [125I][MePhe7]-NKB as radioligand; assay type: cell membranes
T2 sequence (P30098 whole entry): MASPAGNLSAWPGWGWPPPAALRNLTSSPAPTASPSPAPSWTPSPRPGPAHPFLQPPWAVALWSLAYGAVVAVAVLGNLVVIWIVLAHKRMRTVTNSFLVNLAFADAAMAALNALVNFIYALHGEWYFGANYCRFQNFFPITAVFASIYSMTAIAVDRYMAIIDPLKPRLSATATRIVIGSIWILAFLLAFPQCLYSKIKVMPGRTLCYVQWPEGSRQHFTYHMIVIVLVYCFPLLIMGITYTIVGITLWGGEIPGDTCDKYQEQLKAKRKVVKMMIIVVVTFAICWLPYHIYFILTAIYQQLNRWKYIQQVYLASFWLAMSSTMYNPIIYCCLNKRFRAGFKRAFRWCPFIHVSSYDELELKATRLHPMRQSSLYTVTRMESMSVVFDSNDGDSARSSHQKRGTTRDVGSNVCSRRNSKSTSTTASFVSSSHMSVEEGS

Cavia porcellus [3] = species on record: Cavia porcellus; experiment: In vitro inhibition of Isometric contractions from longitudinal muscle myenteric plexus preparations with responses to the NK3 receptor selective agonist senktide; assay type: functional
Cavia porcellus [4] = species on record: Cavia porcellus; experiment: In vitro inhibition of senktide-induced increases in spontaneous firing of guinea pig habenula neurones; assay type: functional
Substance-K receptor = target: T3, Substance-K receptor (Mesocricetus auratus, UniProt P51144); experiment: Binding affinity for NK2 receptor binding sites in membranes prepared from hamster urinary bladder by using [125I]NKA as radioligand
T3 sequence (P51144 whole entry): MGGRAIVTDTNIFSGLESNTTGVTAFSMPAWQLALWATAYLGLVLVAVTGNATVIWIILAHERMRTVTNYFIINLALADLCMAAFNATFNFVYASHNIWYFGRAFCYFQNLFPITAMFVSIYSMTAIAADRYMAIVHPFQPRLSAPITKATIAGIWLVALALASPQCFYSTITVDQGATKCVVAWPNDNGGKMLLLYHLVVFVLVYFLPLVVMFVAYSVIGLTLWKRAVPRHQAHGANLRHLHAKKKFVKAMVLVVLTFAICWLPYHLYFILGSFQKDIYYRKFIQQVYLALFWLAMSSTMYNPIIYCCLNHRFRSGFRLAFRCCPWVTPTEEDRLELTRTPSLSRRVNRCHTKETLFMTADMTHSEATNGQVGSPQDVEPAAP

IC50 (Substance-P receptor): 10 µM
Structure (SMILES): CC(C)(C)OC(=O)N[C@@](C)(Cc1ccccc1)C(=O)N[C@H](Cc1ccccc1)C(=O)NCCCCCCCCO

Structure (SMILES): CC(C)(C)OC(=O)N[C@@H](Cc1ccccc1)C(=O)N[C@](C)(Cc1ccccc1)C(=O)NCCCCCCCNC(N)=O
Ke (CHO): 7 nM

IC50 (Neuromedin-K receptor [1]): 0.102 µM
Structure (SMILES): COCCCCCCCCNC(=O)C(Cc1ccccc1)NC(=O)[C@](C)(Cc1ccccc1)NC(=O)OC(C)(C)C (some centres undefined)

IC50 (Substance-P receptor): 10 µM
IC50 (Neuromedin-K receptor [2]): 0.015 µM
IC50 (Substance-K receptor): 5.02 µM
Structure (SMILES): CC(C)(C)OC(=O)N[C@@](C)(Cc1ccccc1)C(=O)N[C@H](Cc1ccccc1)C(=O)NCCCCCCCCC(N)=O
Ke (CHO): 15 nM
Ke (Cavia porcellus [3]): 13 nM
Ke (Cavia porcellus [4]): 25 nM
